# Results published in ChEMBL document CHEMBL1201862, “PubChem BioAssay data set” (2004).
# Calls of active or inactive are those of the source.
# How the values were obtained:
# [1] = target: T1, Carboxy-terminal domain RNA polymerase II polypeptide A small phosphatase 1 (Homo sapiens, UniProt Q9GZU7); experiment: CTDSP1 inhibitors, concentration-response, biochemical, absorbance readout, ultra-high-throughput screen actives (AID 540297); assay type: functional
# T1 sequence (Q9GZU7 whole entry): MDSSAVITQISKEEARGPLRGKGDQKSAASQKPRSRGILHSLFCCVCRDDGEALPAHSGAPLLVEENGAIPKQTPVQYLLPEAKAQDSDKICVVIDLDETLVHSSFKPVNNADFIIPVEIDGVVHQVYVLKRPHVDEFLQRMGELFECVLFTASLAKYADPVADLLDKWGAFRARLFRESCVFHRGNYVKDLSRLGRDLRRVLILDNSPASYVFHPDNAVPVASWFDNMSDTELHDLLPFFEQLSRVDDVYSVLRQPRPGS
# [2] = target: FAD-linked sulfhydryl oxidase ALR (Homo sapiens, UniProt P55789); experiment: ALR-catalysed DTT oxidation blockers – biochemical, H2O2 detection, luminescence, cherry-pick, dose response (AID 493248)
# [3] = viability of PTEN-deleted HCT116 cells – cell-based, HCT116 PTEN knockout, dose response (AID 1047); assay type: functional;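 further: HCT116 colon tumor cells with PTEN knocked out; cells exposed to compound for 60 hours before readout; potency for loss of cell viability measured by luminescence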
# [4] = viability of HCT116 lacking mutant beta-catenin – cell-based, human colon tumor, dose response (AID 1045); assay type: functional;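 further: HCT116 colon tumor cells with beta catenin knocked out; cells exposed to compound for 60 hours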
# [5] = microbe, parasite or virus in culture; assay type: functional; settings: Mycobacterium tuberculosis
# H4 = experiment: Luminescence Cell-Based Dose Response HTS to Identify Activators of 5'UTR Stem-Loop Driven Prion Protein mRNA Translation in H4 Neuroglioblastoma Cells. [Related pubchem assays: 1829 (Project Summary), 1814 (Primary HTS)]; assay type: functional; settings: Homo sapiens
# [6] = Luminescence Cell-Based Dose Confirmation HTS to Identify Activators of 5'UTR Stem-Loop Driven Alpha-Synuclein mRNA Translation in H4 Neuroglioblastoma Cells. [Related pubchem assays: 1829 (Project Summary), 1814 (Primary HTS)]; assay type: functional
# [7] = Luminescence Cell-Based Dose Response HTS to Identify Activators of Luciferase Translation or Activity in H4 […] Cells. [Related pubchem assays: 1829 (Project Summary), 1814 (Primary HTS)]; assay type: functional
# [8] = NIH-3T3 fibroblast cytotoxicity, dose response, cytotoxicity control, cell-based, fluorescence, Alamar Blue, secondary assay (AID 2327); assay type: functional;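 further: NIH-3T3 mouse fibroblasts cultured with fluconazole at 8 µg/mL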
# [9] = fluconazole-exposed Candida albicans growth modulators – fluorescence, retest, confirmation (AID 2467); assay type: functional, cell-based
# [10] = target: T2, Corticotropin-releasing factor receptor 2/Corticotropin-releasing factor-binding protein (Homo sapiens, UniProt P24387+Q13324); experiment: Dose Response confirmation of uHTS hits for small molecule antagonists of the CRF-binding protein and CRF-R2 receptor complex.; assay type: functional; settings: read-out: IC50_Mean
# T2 sequence (Q13324 whole entry): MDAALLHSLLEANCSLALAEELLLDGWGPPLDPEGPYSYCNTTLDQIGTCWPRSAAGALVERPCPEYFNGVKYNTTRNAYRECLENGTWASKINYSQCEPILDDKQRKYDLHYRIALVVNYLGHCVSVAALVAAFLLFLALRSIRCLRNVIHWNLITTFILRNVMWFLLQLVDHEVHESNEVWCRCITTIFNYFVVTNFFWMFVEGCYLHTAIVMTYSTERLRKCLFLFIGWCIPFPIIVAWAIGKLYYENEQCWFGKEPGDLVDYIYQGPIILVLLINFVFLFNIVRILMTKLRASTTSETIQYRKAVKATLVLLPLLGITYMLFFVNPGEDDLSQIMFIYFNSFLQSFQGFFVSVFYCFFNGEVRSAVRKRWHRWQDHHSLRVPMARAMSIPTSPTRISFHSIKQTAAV
# T2 sequence (P24387 whole entry): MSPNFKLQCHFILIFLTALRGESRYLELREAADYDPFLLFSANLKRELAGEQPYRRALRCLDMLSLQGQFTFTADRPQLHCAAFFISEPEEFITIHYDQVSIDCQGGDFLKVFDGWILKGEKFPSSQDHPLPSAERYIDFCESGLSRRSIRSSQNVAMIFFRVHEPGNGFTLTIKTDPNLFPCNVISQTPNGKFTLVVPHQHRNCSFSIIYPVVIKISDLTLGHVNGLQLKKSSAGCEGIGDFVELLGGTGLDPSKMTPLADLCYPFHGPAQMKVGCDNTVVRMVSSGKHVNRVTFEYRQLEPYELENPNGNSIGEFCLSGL
# [11] = target: T2, Corticotropin-releasing factor receptor 2/Corticotropin-releasing factor-binding protein; experiment: activators of CRF receptor 2 with binding protein – uHTS hits, confirmation (AID 602473); assay type: functional; settings: read-out: EC50_Mean
# [12] = Trypanosoma cruzi growth suppression in host cells – NIH3T3 host cells, beta-gal luminescence, confirmation (AID 2044); assay type: functional, cell-based;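 further: intracellular parasites grown in NIH/3T3 mouse fibroblasts as host cells; luminescent beta-galactosidase reporter signal from transgenic T. cruzi replicating inside host cells; inhibitors lower the luminescence signal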
# [13] = NIH3T3 cell viability loss – ATP luminescence, mouse fibroblasts, counter-screen, dose response (AID 2010); assay type: functional, cell-based;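 further: cells exposed to compound for about 90 hours before reading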
# INS1 = experiment: INS-1E survival protection against cytokine death – cell-based, luminescence, retest, dose response (AID 449756); assay type: functional; settings: Rattus norvegicus;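 further: cell death triggered by IL-1 beta plus TNF-alpha plus IFN-gamma mixture; protective hits raise ATP signal compared with cytokine alone wells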
# Streptokinase A = target: T3, Streptokinase A (Streptococcus pyogenes serotype M1, UniProt P10520); experiment: viability-normalized secreted streptokinase activity reduction – plasminogen activation absorbance, OD405, dose response (AID 1914); assay type: functional, Streptococcus pyogenes M1 GAS;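 further: secreted streptokinase activity via plasminogen activation per viability signal from cell pellet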
# T3 sequence (P10520 whole entry): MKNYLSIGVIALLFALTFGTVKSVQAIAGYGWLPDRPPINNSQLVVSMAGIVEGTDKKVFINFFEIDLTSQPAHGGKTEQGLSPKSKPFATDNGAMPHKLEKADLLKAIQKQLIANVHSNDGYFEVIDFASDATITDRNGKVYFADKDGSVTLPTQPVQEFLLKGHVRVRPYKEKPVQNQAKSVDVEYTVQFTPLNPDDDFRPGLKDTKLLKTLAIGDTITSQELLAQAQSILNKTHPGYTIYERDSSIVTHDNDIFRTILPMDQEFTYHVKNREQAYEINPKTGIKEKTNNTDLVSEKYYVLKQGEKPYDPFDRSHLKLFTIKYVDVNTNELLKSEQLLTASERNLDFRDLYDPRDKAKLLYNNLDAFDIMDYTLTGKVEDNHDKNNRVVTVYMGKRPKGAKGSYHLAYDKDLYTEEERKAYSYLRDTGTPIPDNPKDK
# Streptococcus = experiment: GAS UMAA2166 growth inhibition – luminescence, BacTiterGlo, counter-screen for streptokinase expression inhibitor project, dose response (AID 1915); assay type: functional, organism-based;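 further: potency for reduction of bacterial viability or growth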
# [14] = system: Streptococcus sp. 'group A'; experiment: Streptococcus pyogenes SK(-)GAS viability under kanamycin – luminescence, BacTiterGlo, confirmation, counter-screen for streptokinase expression inhibitor project, dose response (AID 1900); assay type: functional, organism-based
# [15] = target: T4, Rac GTPase-activating protein 1 (Homo sapiens, UniProt Q9H0H5); experiment: blockers of MgcRacGAP-driven Rac1 GTP hydrolysis – biochemical, ADP Hunter fluorescence, primary and confirmatory, confirmation (AID 624330); assay type: functional
# T4 sequence (Q9H0H5 whole entry): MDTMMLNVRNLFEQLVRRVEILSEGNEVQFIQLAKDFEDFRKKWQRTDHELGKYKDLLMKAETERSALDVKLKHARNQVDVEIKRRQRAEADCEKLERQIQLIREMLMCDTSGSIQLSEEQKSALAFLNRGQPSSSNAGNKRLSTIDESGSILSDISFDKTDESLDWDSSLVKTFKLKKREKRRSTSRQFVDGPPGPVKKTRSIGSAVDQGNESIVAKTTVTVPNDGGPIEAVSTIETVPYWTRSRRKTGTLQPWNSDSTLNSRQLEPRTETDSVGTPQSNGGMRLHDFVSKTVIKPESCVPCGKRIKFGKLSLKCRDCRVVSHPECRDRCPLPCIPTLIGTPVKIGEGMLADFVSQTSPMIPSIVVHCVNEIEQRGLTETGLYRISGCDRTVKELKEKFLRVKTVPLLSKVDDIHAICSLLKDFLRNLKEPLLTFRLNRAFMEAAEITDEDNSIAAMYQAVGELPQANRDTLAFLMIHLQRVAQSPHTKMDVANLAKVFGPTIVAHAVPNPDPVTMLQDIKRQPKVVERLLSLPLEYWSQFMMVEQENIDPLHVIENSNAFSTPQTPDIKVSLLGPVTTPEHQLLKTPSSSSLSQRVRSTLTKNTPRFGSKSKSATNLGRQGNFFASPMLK
# H9c2 = experiment: cells; assay type: functional, cell-based; settings: Rattus norvegicus, H9c2, Myocardium;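 further: confirmatory concentration-response retest of ultra-high-throughput screening hits for modulation of myocardial damage; cell death induced by hydrogen peroxide oxidative stress; compound pretreatment for 60 min then peroxide exposure for 2 h; potency is for protecting the cells against peroxide damage rather than for killing them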
# [16] = reduction of Shn3 3'UTR-driven luciferase in osteoblasts – cell-based, Clone20 osteoblasts, firefly luciferase, cherry-picked, dose response (AID 624132); assay type: functional;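 further: firefly luciferase luminescence from reporter carrying the Shn3 3'UTR in osteoblasts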
# [17] = Luminescence Cell-Based Dose Retest to Confirm Inhibitors of Cancer Stem Cells. [Related pubchem assays (depositor defined):AID2717, AID2721]; assay type: functional; settings: Homo sapiens
# Sequence of FAD-linked sulfhydryl oxidase ALR (P55789 whole entry): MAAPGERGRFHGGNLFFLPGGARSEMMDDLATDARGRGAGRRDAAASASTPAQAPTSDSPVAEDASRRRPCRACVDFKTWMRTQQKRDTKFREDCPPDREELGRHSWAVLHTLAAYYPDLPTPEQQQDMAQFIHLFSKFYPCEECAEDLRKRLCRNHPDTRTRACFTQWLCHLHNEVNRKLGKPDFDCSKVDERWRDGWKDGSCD
smiles,measurement,setting,value
Cc1ccn2c(=O)nc(SCC(=O)NCc3ccc4c(c3)OCO4)nc2c1,IC50,[1],10.5 µM (active)
Cc1occc1C(=O)NCCCCc1ccccc1,AC50,[2],0.488 µM (active)
CC(=O)Nc1ccccc1N(CC(O)Cn1c2ccccc2c2ccccc21)S(=O)(=O)c1ccc(C)cc1 (configuration not stated),EC50,[3],13.5 µM (active)
same,EC50,[4],17.1 µM (active)
S=C(Nc1ccc(Cl)cc1)NC1CC2CCC(C1)N2Cc1ccccc1 (configuration not stated),CC50,[5],> 40 µM (active)
N=c1c2c(ncn1CCN1CCOCC1)Oc1ccc3ccccc3c1C2c1ccccc1 (configuration not stated),EC50,[3],16.5 µM (active)
same,EC50,[4],15.3 µM (active)
Sc1nnc(-c2ccc(Cl)cc2Cl)n1-c1ccccc1,EC50,H4,14.9 µM (active)
same,EC50,[6],15.5 µM (active)
same,EC50,[7],56.4 µM (active)
CCCCC(=O)OCC(=O)N1N=C(c2c[nH]c3ccccc23)C(O)C1c1ccc(OC)cc1 (configuration not stated),CC50,[5],> 40 µM (active)
COc1ccc(C2Nc3ccccc3C(=O)N2O)cc1OC (configuration not stated),EC50,[8],> 150 µM (inactive)
same,EC50,[9],> 38 µM (not active)
CN1C(c2ccc(F)cc2)=CS/C1=C(/C#N)c1nnc(N2CCOCC2)n1-c1ccccc1,EC50,H4,> 120 µM (not active)
same,EC50,[6],> 120 µM (not active)
same,IC50,[10],> 47.1 µM (inactive)
same,EC50,[11],> 53 µM (inactive)
same,EC50,[7],> 120 µM (not active)
Cc1ccc(Cn2ncn(-c3ccccc3)c2=O)cc1,EC50,H4,7.14 µM (active)
same,EC50,[6],14.4 µM (active)
same,EC50,[7],24.1 µM (active)
Cc1cccc(C(=O)NC2CCN(C(=O)NCc3ccccc3)CC2)c1,IC50,[1],12.1 µM (active)
C=CCn1c(=N)n(CC(=O)c2cccc([N+](=O)[O-])c2)c2ccccc21,EC50,[8],134 µM (active)
same,EC50,[9],> 38 µM (not active)
CCOC(=O)N1CCC(N2Cc3cccc(C(=O)Nc4ccc(N(CC)CC)cc4C)c3C2=O)CC1,CC50,[5],> 40 µM (active)
CCCc1cc(=O)oc2cc(OCC(=O)NC(Cc3c[nH]c4ccc(O)cc34)C(=O)O)c(Cl)cc12 (configuration not stated),IC50,[1],32.7 µM (active)
Cc1ccc(NC2CCCN(C(=O)c3ccc(C)c(N4CCNC4=O)c3)C2)cc1C (configuration not stated),AC50,[2],3.32 µM (active)
O=C(CN1C(=O)S/C(=C\c2ccc(O)c([N+](=O)[O-])c2)C1=O)Nc1ccc(N2CCOCC2)cc1,IC50,[1],2.65 µM (active)
CN=C(S)N=CNOCc1c(Cl)cccc1Cl,CC50,[5],> 40 µM (active)
Cc1ccc(Nc2nnc(C3C(=O)N(C)C4(C)CC3c3cc(Br)ccc3O4)s2)cc1 (configuration not stated),EC50,[8],19.8 µM (active)
same,EC50,[9],4.45 µM (active)
CCn1c(=O)c(CCC(=O)N2CCN(c3ccccn3)CC2)c(C)c2c(C)nn(-c3cccc(C)c3)c21,CC50,[5],> 40 µM (active)
same,EC50,[12],1.59 µM (active)
same,EC50,[13],> 60 µM (not active)
CC1=CC(C)(C)n2c(O)c(C3=NC(=S)NC3=O)c3cc(OC(=O)c4cccc5ccccc45)cc1c32,EC50,[3],19.6 µM (active)
same,EC50,[4],24 µM (active)
c1ccc2c(c1)ncn2CCCOc1ccc2c(c1)CCC2,AC50,INS1,7.64 µM (active)
same,EC50,Streptokinase A,> 150 µM (not active)
same,EC50,[3],30.5 µM (active)
same,EC50,Streptococcus,> 150 µM (not active)
same,EC50,[4],21.6 µM (active)
same,EC50,[14],22.4 µM (active)
N#C/C=C\Oc1ccc(Cl)cc1N,IC50,[15],218 µM (active)
same,CC50,[5],> 40 µM (active)
Cc1ccc2nc(O)c(CN(Cc3ccco3)S(=O)(=O)c3c(C)ccc4nsnc34)cc2c1,EC50,[3],13.2 µM (active)
same,IC50,H9c2,8.78 µM (active)
same,EC50,[4],14.8 µM (active)
COc1cc(C(=O)c2ccccc2)c(OC)cc1C(=O)Nc1ccc(O)cc1,AC50,[2],0.039 µM (active)
CC(=O)OCC1=C(C(=O)OC(C)(C)C)N2C(=O)[C@@H](NC(=O)Cc3ccccc3)[C@H]2SC1,IC50,[1],8.61 µM (active)
COc1cccc(OC)c1C(=O)N1CCN=C1SCc1cccnc1,AC50,[2],0.043 µM (active)
CCOC(=O)C1(C)Oc2ccccc2C(C(=O)OC)=C1C(=O)OC (configuration not stated),IC50,[1],23.6 µM (active)
O=C(COC(=O)c1ccc(Br)o1)NCc1ccco1,IC50,[1],9.79 µM (active)
NS(=O)(=O)c1ccc(CNC(=S)NC(=O)c2ccco2)cc1,AC50,[16],22.9 µM (active)
Cc1cccc(OCCNc2cc(N3CCN(C)CC3)ccc2[N+](=O)[O-])c1,EC50,[12],0.495 µM (active)
same,EC50,[3],19.8 µM (active)
same,EC50,[13],> 60 µM (not active)
same,AC50,[17],1.47 µM (active)
same,EC50,[4],86.1 µM (active)
Cc1cccc(/C=N/n2c(S)nnc2-c2ccccc2)c1O,AC50,[2],3.82 µM (active)
O=C1C2C3C=CC(C4CC34)C2C(=O)N1/N=C/c1c[nH]c2ccccc12 (configuration not stated),EC50,H4,14.9 µM (active)
same,EC50,[6],11 µM (active)
same,EC50,[7],> 120 µM (not active)
